# From patent US11046709B2, “Fused 1,4-diazepines as BET bromodomain inhibitors” (THE REGENTS OF THE UNIVERSITY OF MICHIGAN, priority 2017, dated 2021)
# How the values were obtained:
# recombinant BRD4 BD1 = molecular target: T1, recombinant BRD4 BD1 (Homo sapiens, UniProt O60885); assay: Competitive fluorescence-polarization (FP) binding assay, BRD4 BD1; conditions: competitive FP, Table 6; read-out: IC50 as determinined in FP assays BRD4 BD1
# T1 construct: for recombinant BRD4 BD1 and BRD4 BD2 proteins
# recombinant BRD4 BD2 = molecular target: T2, recombinant BRD4 BD2 (Homo sapiens, UniProt O60885); assay: Competitive fluorescence-polarization (FP) binding assay, BRD4 BD2; conditions: competitive FP, Table 6; read-out: IC50 as determinined in FP assays BRD4 BD2
# T2 construct: for recombinant BRD4 BD1 and BRD4 BD2 proteins
# RS4;11 = assay: Cell growth inhibition, 4-day proliferation assay, RS4;11; assay type: cell-based; conditions: Homo sapiens, RS4-11; WST-8 assay, Table 7; read-out: Cell growth inhibition (IC50 (nM)) RS4;11
# Experimental: The effect of representative Compounds of the Disclosure on cell viability was determined in a 4-day proliferation assay. Cells were maintained in the appropriate culture medium with 100/0 FBS at 37° C. and an atmosphere of 5% CO2. All the cell lines were used within three months of thawing fresh vials.
# In general, cells were seeded in 96-well flat bottom (Corning COSTAR, Corning, N.Y., cat #3595) or white opaque cell culture plates (BD Falcon, cat #353296) at a density of 3,000-10,000 cells/well in 75 μl of culture medium. Compounds were serially diluted in the appropriate medium, and 75 μl of the diluted compounds were added to the appropriate wells of the cell plate. After the addition of compounds, the cells were incubated at 37° C. in an atmosphere of 5% CO2 for 4 days. Cell viability was determined using the CellTiter-Glo® Luminescent Cell Viability Assay Kit (Promega, Madison, Wis.) for leukemia cells and WST (2-(2-methoxy-4-nitrophenyl)-3-(4-nitrophenyl)-5-(2,4-disulfophenyl)-2H-tetrazolium, monosodium salt) Cell Counting-8 Kit (Dojindo Molecular Technologies, Inc., Rockville, Md.) for adherent cells according to the manufacturers' instructions.
# For WST assay (adherent cells), WST-8 reagent was added to each well at a final concentration of 10% (v/v), and then the plates were incubated at 37° C. for 1-2 hours for color development. The absorbance was measured at 450 nm using a SPECTRAmax PLUS plate reader (Molecular Devices, Sunnyvale, Calif.). The readings were normalized to the DMSO-treated cells and the half maximal inhibitory concentration (IC50) was calculated by nonlinear regression (four parameters sigmoid fitted with variable slope, least squares fit, and no constraint) analysis using the GraphPad Prism 5 software (GraphPad Software, La Jolla, Calif.).
# For CellTiter-Glo assay (suspension cells), 100 μl of CellTiter-Glo® Reagent was added to each well, and then the plates were incubated at room temperature for 10-20 minutes. The luminescent signal was measured using a Tecan Infinite M1000 multimode microplate reader (Tecan, Morrisville, N.C.). The readings were normalized to the DMSO-treated cells and the IC50 was calculated by nonlinear regression (four parameters sigmoid fitted with variable slope, least squares fit, and no constraint) analysis using the GraphPad Prism 5 software. See US 2014/0256706.
# For a number of representative compounds in Table 5, their IC50 values in cell growth inhibition activity in the RS4;11 and MOLM-13 human leukemia cell lines and the MDA-MB-231 breast cancer cell line were evaluated using the WST-8 assay described in EXAMPLE 7, with the data shown in Table 7.
# MOLM-13 = assay: Cell growth inhibition, 4-day proliferation assay, MOLM-13; assay type: cell-based; conditions: Homo sapiens, MOLM-13, WST-8 assay, Table 7; read-out: Cell growth inhibition (IC50 (nM)) MOLM-13
# MDA-MB-231 = assay: Cell growth inhibition, 4-day proliferation assay, MDA-MB-231; assay type: cell-based; conditions: Homo sapiens, MDA-MB-231; WST-8 assay, Table 7; read-out: Cell growth inhibition (IC50 (nM)) MDA-MB-231
# How it was run: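 WST-8 colorimetric read-out (absorbance 450 nm after 1-2 h) after 4-day compound exposure of 3,000-10,000 cells/well at 37 °C; IC50 from variable-slope sigmoid fit of DMSO-normalized signal.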
# BRD2 BD1 = BRD2 BD1 (Homo sapiens, UniProt P25440); assay: Competitive FP binding assay, BRD2 BD1; conditions: Table 8, read-out: IC50 (nM) in FP assays BRD2 BD1
# Experimental: (§1) Fluorescence Polarization (FP) competitive binding studies were carried out using a FAM labeled fluorescent probe, see, e.g., Cpd. No. 350 of US 2014/0256706, to determine binding affinities of representative Compounds of the Disclosure for recombinant BRD4 BD1 and BRD4 BD2 proteins. Equilibrium dissociation constants (Kd) values of the fluorescent probe to BRD4 BD1 and BD2 proteins were determined from protein saturation experiments by monitoring the total fluorescence polarization of mixtures composed with the fluorescent probe at a fixed concentration and proteins with increasing concentrations up to full saturation. Serial dilutions of testing proteins were mixed with the fluorescent probe to a final volume of 200 μl in the assay buffer (100 mM phosphate buffer, pH=6.5, 0.01% Triton X-100 (Sigma, 282103) being added right before assays). Final fluorescent probe concentration was 1.5 nM for both proteins. Plates were incubated at room temperature for 30 minutes with gentle shaking to assure equilibrium. FP values in millipolarization units (mP) were measured using the Infinite M-1000 plate reader (Tecan U.S., Research Triangle Park, N.C.) in Microfluor 1 96-well, black, round-bottom plates (Thermo Scientific, Waltham, Mass.) at an excitation wavelength of 485 nm and an emission wavelength of 530 nm. Kd values of the fluorescent probe, which were calculated by fitting the sigmoidal dose-dependent FP increases as a function of protein concentrations using Graphpad Prism 6.0 software (Graphpad Software, San Diego, Calif.), are 5.5 and 3.0 nM to BDR4 BD1 and 2, respectively.
# (§2) The IC50 and Ki values of compounds were determined in a competitive binding experiment. See US 2014/0256706. Mixtures of 10 μl of the tested compounds in assay buffer with 40% Ethylene Glycol and 190 μl of preincubated protein/probe complex solution in the assay buffer (100 mM potassium phosphate, pH 6.5, 0.01% Triton X-100) were added into assay plates which were incubated at room temperature for 30 minutes with gentle shaking. Final concentrations of proteins were 10 and 6 nM in assays for BRD4 BD1 and BD2, respectively. Final probe concentration is 1.5 nM in both assays. […] FP values were measured as described above. IC50 values were determined by nonlinear regression fitting of the competition curves. Instead of being calculated from IC50 values as described before. […]
# (§3) For several representative compounds in Table 5, their binding affinities to BRD2 BD1 and BD2 proteins, and BRD3 BD1 and BD2 proteins were determined using the Competitive Fluorescence-Polarization (FP) Assays described in Example 6, with the data included in Table 8.
# BRD2 BD2 = BRD2 BD2 (Homo sapiens, UniProt P25440); assay: Competitive FP binding assay, BRD2 BD2; conditions: Table 8, read-out: IC50 (nM) in FP assays BRD2 BD2
# Experimental: as §1, §2, §3
# BRD3 BD1 = BRD3 BD1 (Homo sapiens, UniProt Q15059); assay: Competitive FP binding assay, BRD3 BD1; conditions: Table 8, read-out: IC50 (nM) in FP assays BRD3 BD1
# Experimental: as §1, §2, §3
# BRD3 BD2 = BRD3 BD2 (Homo sapiens, UniProt Q15059); assay: Competitive FP binding assay, BRD3 BD2; conditions: Table 8, read-out: IC50 (nM) in FP assays BRD3 BD2
# Experimental: as §1, §2, §3
# [1] = Plasma exposure after oral gavage in mice, LC-MS/MS; assay type: in vivo; conditions: mouse, plasma, mice, oral gavage 25 mg/kg
# Experimental: For a number of representative compounds in Table 5, their plasma exposures with oral administration in mice via oral gavage were determined by LC-MS/MS, with the data shown in Table 9.
# BRD3 BD1, sequence (Q15059 34-140 limits assumed): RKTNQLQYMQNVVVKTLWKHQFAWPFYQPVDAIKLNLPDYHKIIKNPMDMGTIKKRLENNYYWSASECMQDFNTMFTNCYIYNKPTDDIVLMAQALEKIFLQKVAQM
# BRD2 BD1, sequence (P25440 74-180 limits assumed): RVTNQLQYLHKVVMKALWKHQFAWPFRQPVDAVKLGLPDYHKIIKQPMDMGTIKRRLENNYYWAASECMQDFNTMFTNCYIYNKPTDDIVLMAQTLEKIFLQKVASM
# BRD2 BD2, sequence (P25440 344-453 limits assumed): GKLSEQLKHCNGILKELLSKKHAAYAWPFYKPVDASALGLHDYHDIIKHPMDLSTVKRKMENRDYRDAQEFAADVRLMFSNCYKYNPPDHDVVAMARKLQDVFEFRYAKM
# BRD3 BD2, sequence (Q15059 306-415 limits assumed): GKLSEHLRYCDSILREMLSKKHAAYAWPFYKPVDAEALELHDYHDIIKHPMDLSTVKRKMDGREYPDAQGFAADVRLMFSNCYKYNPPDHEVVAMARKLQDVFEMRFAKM
smiles,measurement,setting,value
"Cc1nnc(C[C@@H]2N=C(c3ccc(Cl)cc3)c3c(sc(C#CC4CCOCC4)c3C)-n3c(C)nnc32)o1 [Compound 145, (S)-2-((4-(4-chlorophenyl)-3,9-dimethyl-2-((tetrahydro-2H-pyran-4-yl)ethynyl)-6H-thieno[3,2-f][1,2,4]triazolo[4,3-a][1,4]diazepin-6-yl)methyl)-5-methyl-1,3,4-oxadiazole]",IC50,recombinant BRD4 BD1,0.0163 µM
same,IC50,recombinant BRD4 BD2,0.0475 µM
same,IC50,RS4;11,13.3 nM
same,IC50,MOLM-13,11.3 nM
same,IC50,MDA-MB-231,105 nM
same,IC50,BRD2 BD1,26 nM
same,IC50,BRD2 BD2,50.7 nM
same,IC50,BRD3 BD1,38.6 nM
same,IC50,BRD3 BD2,161 nM
same,concentration at 1 h,"[1]; 1 h, read-out: Plasma concentration (ng/mL) 1 h",6620 ng/mL
same,concentration at 3 h,"[1]; 3 h, read-out: Plasma concentration (ng/mL) 3 h",4880 ng/mL
same,concentration at 6 h,"[1]; 6 h, read-out: Plasma concentration (ng/mL) 6 h",629 ng/mL
